What all share (assay type): cell-based
The target of experiment [1] is T1, TRPV3 (hTRPV3) (Homo sapiens, UniProt Q8NET8).
T1 sequence (Q8NET8 1-790): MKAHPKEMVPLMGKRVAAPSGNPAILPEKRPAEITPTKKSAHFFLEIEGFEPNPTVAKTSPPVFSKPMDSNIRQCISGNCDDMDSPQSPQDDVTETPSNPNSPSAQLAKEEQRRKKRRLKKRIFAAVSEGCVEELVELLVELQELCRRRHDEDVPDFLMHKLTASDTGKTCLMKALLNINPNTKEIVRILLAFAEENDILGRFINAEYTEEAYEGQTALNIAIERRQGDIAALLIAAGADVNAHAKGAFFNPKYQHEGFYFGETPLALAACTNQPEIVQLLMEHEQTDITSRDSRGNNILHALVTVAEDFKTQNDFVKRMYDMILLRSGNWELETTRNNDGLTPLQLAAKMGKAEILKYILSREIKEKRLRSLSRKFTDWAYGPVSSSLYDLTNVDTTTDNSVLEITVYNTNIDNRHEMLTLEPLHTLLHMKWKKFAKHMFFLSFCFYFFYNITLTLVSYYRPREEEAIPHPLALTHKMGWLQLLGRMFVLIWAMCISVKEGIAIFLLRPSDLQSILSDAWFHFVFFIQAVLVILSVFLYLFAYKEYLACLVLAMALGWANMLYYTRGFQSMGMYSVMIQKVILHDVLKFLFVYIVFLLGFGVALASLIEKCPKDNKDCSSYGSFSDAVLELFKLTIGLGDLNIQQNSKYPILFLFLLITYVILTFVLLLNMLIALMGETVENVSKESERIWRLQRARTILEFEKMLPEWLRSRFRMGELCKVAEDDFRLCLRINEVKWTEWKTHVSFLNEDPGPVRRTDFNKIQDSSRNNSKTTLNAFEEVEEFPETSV
Briefly: cryo-EM structure.

Another experiment deals with T2, mTRPV3 (Mus musculus, UniProt Q8K424).
T2 sequence (Q8K424 1-791): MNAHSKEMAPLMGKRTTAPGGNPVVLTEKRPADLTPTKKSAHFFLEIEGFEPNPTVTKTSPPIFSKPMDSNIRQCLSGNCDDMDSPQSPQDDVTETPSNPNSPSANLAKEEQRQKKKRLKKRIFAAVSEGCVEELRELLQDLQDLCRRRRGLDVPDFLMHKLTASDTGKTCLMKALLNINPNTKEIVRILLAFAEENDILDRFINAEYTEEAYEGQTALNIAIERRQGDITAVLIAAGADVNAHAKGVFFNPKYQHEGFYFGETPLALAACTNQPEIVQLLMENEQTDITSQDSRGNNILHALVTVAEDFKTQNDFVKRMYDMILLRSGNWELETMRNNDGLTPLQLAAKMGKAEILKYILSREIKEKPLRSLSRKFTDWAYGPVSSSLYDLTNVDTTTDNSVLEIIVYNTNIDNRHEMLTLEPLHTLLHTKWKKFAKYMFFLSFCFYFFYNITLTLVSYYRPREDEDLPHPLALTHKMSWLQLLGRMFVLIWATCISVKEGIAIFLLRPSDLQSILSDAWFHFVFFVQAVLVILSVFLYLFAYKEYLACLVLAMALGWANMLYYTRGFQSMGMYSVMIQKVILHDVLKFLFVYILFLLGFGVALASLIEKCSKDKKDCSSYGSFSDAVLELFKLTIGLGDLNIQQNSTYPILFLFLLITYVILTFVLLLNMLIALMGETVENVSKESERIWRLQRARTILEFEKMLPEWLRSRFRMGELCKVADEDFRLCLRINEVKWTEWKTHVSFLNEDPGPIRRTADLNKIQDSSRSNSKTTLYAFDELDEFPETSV
As to the kind of experiment: whole-cell patch clamp, inhibition of citronellal-evoked currents.

In experiment [2] the target is T1, TRPV3 (hTRPV3). Briefly: cryo-EM structure. This is another data set of the same source.
Experiment [3] concerns the target T3, TRPV3 (hTRPV3) (Homo sapiens, UniProt Q8NET8, Q695L).
T3 sequence (Q8NET8 1-790 Q695L): T1 sequence (Q8NET8 1-790) with Q695L
As to the kind of experiment: whole-cell patch clamp.

The structures appear in SMILES notation. Positions count from the first letter of the chain named. Where two headings read alike, the source gives them in different places.

As for `CC(C)=CCC/C(C)=C/C=O` [citral], the EC50 at TRPV3 (hTRPV3) [1] came out at 6.61 ± 0.93 mM.

At mTRPV3, `CCCCOc1ccc(C(=O)CCN2CCCCC2)cc1` [dyclonine] came in with a concentration for half-maximal inhibition (IC50) of 0.00073 ± 5e-05 mM.

Consider `C=CC(C)(O)CCC=C(C)C` (stereo not shown) [linalool], for which the values for the EC50 at TRPV3 (hTRPV3) [2] and at TRPV3 (hTRPV3) [3] were 6.19 ± 0.6 mM and 0.42 ± 0.02 mM, respectively.
